Assay results published in DBAASP.
Converted amounts (≈) assume the structure as drawn.

Columns and labels:
Experiment in all cases: ≥ marks a high value that may be exact or a test limit, other limits are often not marked, values filed in µg/mL are converted to µM
[1] = tested on: Acinetobacter baumannii ATCC 19606
[2] = tested on: Escherichia coli ATCC 25922
[3] = tested on: Pseudomonas aeruginosa ATCC 27853
[4] = tested on: Staphylococcus aureus ATCC 25923
[5] = tested on: Candida albicans ATCC 90028
[6] = tested on: Staphylococcus epidermidis ATCC 12228
[7] = tested on: Candida albicans ATCC 10231
[8] = tested on: Staphylococcus aureus ATCC 29213

SMILES	MIC [1] [µM]	MIC [2] [µM]	MIC [3] [µM]	MIC [4] [µM]	MIC [5] [µM]	MIC [6] [µM]	MIC [7] [µM]	MIC [8] [µM]
CC(C)C[C@H](NC(=O)[C@H](CC(C)C)NC(=O)[C@H](CCCCN)NC(=O)[C@H](CCCCN)NC(=O)[C@H](CC(C)C)NC(=O)[C@@H]1CCCN1C(=O)[C@H](CCCCN)NC(=O)[C@H](CC(C)C)NC(=O)[C@@H](N)Cc1ccccc1)C(N)=O [FLKPLKKLL]	> 116	> 116	7.28 (≈ 7.99 µg/mL)	> 116				
CC(C)C[C@H](NC(=O)[C@H](CC(C)C)NC(=O)[C@H](CCCCN)NC(=O)[C@H](CCCCN)NC(=O)[C@H](CC(C)C)NC(=O)[C@H](CC(N)=O)NC(=O)[C@H](CCCCN)NC(=O)[C@H](CC(C)C)NC(=O)[C@@H](N)Cc1ccccc1)C(N)=O [FLKNLKKLL]	> 115	115 (≈ 128 µg/mL)	7.17 (≈ 7.99 µg/mL)	> 115				
CC[C@H](C)[C@H](NC(=O)[C@H](CC(N)=O)NC(=O)[C@H](Cc1cnc[nH]1)NC(=O)[C@H](Cc1ccccc1)NC(=O)[C@H](CC(C)C)NC(=O)[C@H](CCSC)NC(=O)CNC(=O)[C@H](CC(C)C)NC(=O)[C@H](CCSC)NC(=O)[C@H](CCCCN)NC(=O)[C@@H](N)CC(C)C)C(=O)N[C@@H](CCCN=C(N)N)C(=O)N[C@@H](CC(N)=O)C(=O)N[C@H](C(=O)N[C@@H](CC(C)C)C(=O)N[C@@H](CCCCN)C(=O)N[C@H](C(=O)N[C@H](C(N)=O)C(C)C)[C@@H](C)O)[C@@H](C)CC [LKMLGMLFHNIRNILKTV]				128 (≈ 274 µg/mL)	≥ 64	64 (≈ 137 µg/mL)		
CC(C)C[C@H](NC(=O)[C@H](CC(C)C)NC(=O)[C@H](CCCCN)NC(=O)[C@H](CCCCN)NC(=O)[C@H](CC(C)C)NC(=O)[C@@H](NC(=O)[C@H](CCCCN)NC(=O)[C@H](CC(C)C)NC(=O)[C@@H](N)Cc1ccccc1)C(C)C)C(N)=O [FLKVLKKLL]	29.1 (≈ 32 µg/mL)	29.1 (≈ 32 µg/mL)	7.26 (≈ 7.99 µg/mL)	29.1 (≈ 32 µg/mL)				
CC[C@H](C)[C@H](NC(=O)CN)C(=O)N[C@@H](CCCCN)C(=O)N[C@@H](CCCCN)C(=O)N[C@@H](Cc1c[nH]c2ccccc12)C(=O)N1CCC[C@H]1C(=O)N[C@@H](Cc1cnc[nH]1)C(=O)N[C@@H](CCCCN)C(=O)N1CCC[C@H]1C(=O)N[C@@H](CCCCN)C(=O)N[C@@H](CCCCN)C(=O)N[C@@H](Cc1ccccc1)C(=O)NCC(=O)N[C@@H](CCCCN)C(=O)N[C@@H](CCCCN)C(=O)N[C@@H](Cc1ccccc1)C(=O)N[C@H](C(=O)N[C@@H](CCCCN)C(=O)N[C@@H](CCCCN)C(=O)N[C@H](C(=O)N[C@@H](CCSC)C(=O)N[C@@H](CC(N)=O)C(=O)N[C@@H](CO)C(N)=O)[C@@H](C)CC)C(C)C [GIKKWPHKPKKFGKKFVKKIMNS]		10 (≈ 27.5 µg/mL)				5 (≈ 13.8 µg/mL)		
CC[C@H](C)[C@H](NC(=O)CN)C(=O)N[C@@H](CCCCN)C(=O)N[C@@H](CCCCN)C(=O)N[C@@H](Cc1c[nH]c2ccccc12)C(=O)N[C@@H](CC(C)C)C(=O)N[C@@H](Cc1cnc[nH]1)C(=O)N[C@@H](CO)C(=O)N[C@@H](C)C(=O)N[C@@H](CCCCN)C(=O)N[C@@H](CCCCN)C(=O)N[C@@H](Cc1ccccc1)C(=O)N1CCC[C@H]1C(=O)N[C@@H](CCCCN)C(=O)N[C@@H](CCCCN)C(=O)N[C@@H](Cc1ccccc1)C(=O)N[C@H](C(=O)N[C@@H](CCCCN)C(=O)N[C@@H](CCCCN)C(=O)N[C@H](C(=O)N[C@@H](CCSC)C(=O)N[C@@H](CC(N)=O)C(=O)N[C@@H](CO)C(N)=O)[C@@H](C)CC)C(C)C [GIKKWLHSAKKFPKKFVKKIMNS]		1.25 (≈ 3.43 µg/mL)				0.31 (≈ 0.85 µg/mL)		
CC(C)C[C@H](NC(=O)[C@H](CCCCN)NC(=O)[C@H](Cc1ccccc1)NC(=O)[C@H](CC(C)C)NC(=O)[C@H](CC(C)C)NC(=O)[C@@H]1CCCN1C(=O)[C@H](CCCCN)NC(=O)[C@H](CC(C)C)NC(=O)[C@H](CCCCN)NC(=O)[C@@H]1CCCN1C(=O)[C@H](CC(C)C)NC(=O)[C@H](CC(C)C)NC(=O)[C@H](CC(C)C)NC(=O)[C@H](CCCCN)NC(=O)[C@H](CC(C)C)NC(=O)[C@H](CC(C)C)NC(=O)[C@H](CCCCN)NC(=O)[C@@H](N)Cc1ccc(O)cc1)C(N)=O [YKLLKLLLPKLKPLLFKL]			4.54 (≈ 9.9 µg/mL)				69.1 (≈ 151 µg/mL)	1.78 (≈ 3.87 µg/mL)
CC[C@H](C)[C@H](NC(=O)[C@H](CCCN=C(N)N)NC(=O)[C@H](CCC(N)=O)NC(=O)[C@@H](NC(=O)[C@H](C)NC(=O)[C@H](CCCN=C(N)N)NC(=O)[C@@H](N)CCCCN)C(C)C)C(=O)N[C@@H](CCCCN)C(=O)N[C@@H](CC(=O)O)C(=O)N[C@@H](Cc1ccccc1)C(=O)N[C@@H](CC(C)C)C(=O)N[C@@H](CCCN=C(N)N)C(=O)O [KRAVQRIKDFLR]		5 (≈ 7.65 µg/mL)	10 (≈ 15.3 µg/mL)		≥ 40			20 (≈ 30.6 µg/mL)
CC[C@H](C)[C@H](NC(=O)CN)C(=O)NCC(=O)N[C@@H](CO)C(=O)N[C@H](C(=O)N[C@@H](CC(C)C)C(=O)NCC(=O)N[C@H](C(=O)N[C@H](C(=O)N[C@@H](C)C(=O)N[C@@H](CCCCN)C(=O)NCC(=O)N[C@@H](CC(C)C)C(=O)N1CCC[C@H]1C(=O)N[C@H](C(=O)N[C@@H](CC(C)C)C(=O)N[C@H](C(=O)N[C@@H](CO)C(=O)N[C@@H](Cc1c[nH]c2ccccc12)C(=O)N[C@H](C(=O)N[C@@H](CCCCN)C(=O)N[C@@H](CC(N)=O)C(=O)N[C@@H](CCCN=C(N)N)C(N)=O)[C@@H](C)CC)[C@@H](C)CC)[C@@H](C)O)[C@@H](C)CC)C(C)C)[C@@H](C)CC [GIGSILGVIAKGLPTLISWIKNR]		20 (≈ 48.1 µg/mL)		5 (≈ 12 µg/mL)	20 (≈ 48.1 µg/mL)			
CC(C)C[C@H](NC(=O)[C@H](CC(C)C)NC(=O)[C@H](CCCCN)NC(=O)[C@H](CCCCN)NC(=O)[C@H](CC(C)C)NC(=O)[C@H](CCC(=O)O)NC(=O)[C@H](CCCCN)NC(=O)[C@H](CC(C)C)NC(=O)[C@@H](N)Cc1ccccc1)C(N)=O [FLKELKKLL]	113 (≈ 128 µg/mL)	113 (≈ 128 µg/mL)	14.1 (≈ 16 µg/mL)	> 113				
CC[C@H](C)[C@H](NC(=O)CN)C(=O)N[C@@H](CCCCN)C(=O)N[C@@H](CCCCN)C(=O)N[C@@H](Cc1c[nH]c2ccccc12)C(=O)N[C@@H](CC(C)C)C(=O)N[C@@H](Cc1cnc[nH]1)C(=O)N[C@@H](CCCCN)C(=O)NCC(=O)N[C@@H](CCCCN)C(=O)N[C@@H](CCCCN)C(=O)N[C@@H](Cc1ccccc1)C(=O)NCC(=O)N[C@@H](CCCCN)C(=O)N[C@@H](CCCCN)C(=O)N[C@@H](Cc1ccccc1)C(=O)N[C@H](C(=O)N[C@@H](CCCCN)C(=O)N[C@@H](CCCCN)C(=O)N[C@H](C(=O)N[C@@H](CCSC)C(=O)N[C@@H](CC(N)=O)C(=O)N[C@@H](CO)C(N)=O)[C@@H](C)CC)C(C)C [GIKKWLHKGKKFGKKFVKKIMNS]		0.63 (≈ 1.72 µg/mL)				0.08 (≈ 0.218 µg/mL)		
CC[C@H](C)[C@H](NC(=O)CN)C(=O)N[C@@H](CCCCN)C(=O)N[C@@H](CCCCN)C(=O)N[C@@H](Cc1c[nH]c2ccccc12)C(=O)N[C@@H](CC(C)C)C(=O)N[C@@H](Cc1cnc[nH]1)C(=O)N[C@@H](CO)C(=O)N1CCC[C@H]1C(=O)N[C@@H](CCCCN)C(=O)N[C@@H](CCCCN)C(=O)N[C@@H](Cc1ccccc1)C(=O)NCC(=O)N[C@@H](CCCCN)C(=O)N[C@@H](CCCCN)C(=O)N[C@@H](Cc1ccccc1)C(=O)N[C@H](C(=O)N[C@@H](CCCCN)C(=O)N[C@@H](CCCCN)C(=O)N[C@H](C(=O)N[C@@H](CCSC)C(=O)N[C@@H](CC(N)=O)C(=O)N[C@@H](CO)C(N)=O)[C@@H](C)CC)C(C)C [GIKKWLHSPKKFGKKFVKKIMNS]		2.5 (≈ 6.82 µg/mL)				1.25 (≈ 3.41 µg/mL)		
